Measurements reported in ChEMBL document CHEMBL4814010 (Bioorg Med Chem Lett, 2021).
Values after ≈ are worked out from the molar mass of the structure shown.

Assays:
[1] = Kinetic solubility of compound; format: physicochemical; settings: read-out: Kinetic_solubility
[2] = Corrector activity of Z variant alpha1-antitrypsin misfolding (unknown origin) assessed as inhibition of Z variant alpha1-antitrypsin polymerisation by TR-FRET assay; parameters: species or system Homo sapiens
[3] = Corrector activity of Z variant alpha1-antitrypsin misfolding (unknown origin) expressed in CHO cells assessed as inhibition of Z variant alpha1-antitrypsin polymerisation; format: cell-based, Homo sapiens
[4] = Lipophilicity, log D of compound by chromatographic method; format: physicochemical
[5] = Metabolic stability in human hepatocytes assessed as intrinsic clearance measured per gm of tissue; format: ADME, cell-based, Hepatocyte
[6] = Binding affinity to Z variant alpha1-antitrypsin (unknown origin) by competition binding assay; parameters: species or system Homo sapiens
[7] = Elimination half life in Wistar Han rat at 1 mg/kg, iv; format: ADME, organism-based; settings: in vivo, read-out: beta t1/2 (converted)
[8] = Protein binding in human blood; format: ADME, tissue-based; settings: read-out: PB
Albumin = Albumin (Homo sapiens, UniProt P02768); experiment: Binding affinity to human serum albumin; format: ADME; settings: isolated protein
[9] = Protein binding in human plasma; format: ADME, cell-free; settings: read-out: PPB
[10] = Clearance in Wistar Han rat blood at 1 mg/kg, iv; format: ADME, organism-based
[11] = Protein binding in rat plasma; format: ADME, cell-free; settings: read-out: PPB (converted)
[12] = Volume of distribution in Wistar Han rat at 1 mg/kg, iv; format: ADME, organism-based; settings: in vivo
[13] = Clearance in rat hepatocytes measured per gm of tissue; format: ADME, cell-based, Hepatocyte
[14] = Corrector activity of Z variant alpha1-antitrypsin misfolding (unknown origin) expressed in CHO cells assessed as inhibition of Z variant alpha1-antitrypsin polymerisation by measuring increase in Z alpha1 antitrypsin secretion; format: cell-based

Sequence of Albumin (P02768 whole entry): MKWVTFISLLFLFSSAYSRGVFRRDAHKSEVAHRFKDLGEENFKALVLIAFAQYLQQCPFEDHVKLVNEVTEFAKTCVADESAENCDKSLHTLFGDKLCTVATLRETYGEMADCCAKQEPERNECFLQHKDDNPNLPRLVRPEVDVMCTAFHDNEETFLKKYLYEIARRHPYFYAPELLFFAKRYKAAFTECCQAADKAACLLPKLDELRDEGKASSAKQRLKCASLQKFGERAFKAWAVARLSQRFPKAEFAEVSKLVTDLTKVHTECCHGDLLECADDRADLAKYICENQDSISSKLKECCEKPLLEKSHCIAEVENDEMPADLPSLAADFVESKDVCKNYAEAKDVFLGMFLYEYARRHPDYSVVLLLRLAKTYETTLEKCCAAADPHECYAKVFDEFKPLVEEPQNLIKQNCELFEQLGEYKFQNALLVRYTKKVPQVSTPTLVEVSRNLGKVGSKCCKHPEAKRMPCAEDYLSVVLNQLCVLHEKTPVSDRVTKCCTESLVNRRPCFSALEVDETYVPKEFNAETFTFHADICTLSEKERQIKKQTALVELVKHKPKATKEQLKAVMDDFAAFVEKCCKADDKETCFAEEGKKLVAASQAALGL

Compound	solubility kinetic [1] [µM]	pIC50 [2]	pIC50 [3]	chromatographic logD [4]	CLH [5] [mL/min/g]	further results
CCC[C@@H](NC(=O)c1cccc2c1CC(=O)N2)[C@@H](O)c1ccccc1Cl	≥ 356	8.1	5.7	3.6	0.4	–
CCC[C@@H](NC(=O)c1ccnc2c1CC(=O)N2)[C@@H](O)c1cccc(Cl)c1C	≥ 314	8.1	5.9	3.9	0.9	–
CCC[C@@H](NC(=O)c1cccc2c1CC(=O)N2)[C@@H](O)c1ccccc1C(F)(F)F	≥ 420	7.3	4.9	3.7	0.2	–
CCC[C@@H](NC(=O)c1ccc2cc[nH]c2c1)[C@@H](O)c1ccccc1	≥ 439	6.5	4.5	4.3	–	–
CCC[C@@H](NC(=O)c1cccc2c1CC(=O)N2)[C@@H](O)c1ncccc1C	≥ 392	6.6	4.4	3.2	–	–
CCC[C@@H](NC(=O)c1cncc2[nH]c(=O)[nH]c12)[C@@H](O)c1cccc(Cl)c1C	≥ 227	7.4	4.2	3.4	–	–
CCC[C@H](NC(=O)c1ccc2cc[nH]c2c1)[C@H](O)c1ccccc1	–	< 4	–	–	–	–
CCC[C@@H](NC(=O)c1cccc2c1CC(=O)N2)[C@@H](O)c1ccccc1C	≥ 395	8.3	5.6	3.4	0.3	–
CCC[C@@H](NC(=O)c1ccc2cc[nH]c2c1)[C@H](O)c1ccccc1	–	5.5	–	–	–	–
CCC[C@@H](NC(=O)c1cccc2c1NC(=O)C2)[C@@H](O)c1cccc(Cl)c1C	128 (≈ 49.5 µg/mL)	8.6	6.3	5.2	3.7	–
CCCC(NC(=O)c1ccc2cc[nH]c2c1)C(O)c1ccccc1 (stereo unspecified)	–	6.5	–	–	–	IC50 [2]: 0.3 µM
CCC[C@@H](NC(=O)c1cccc2c1CC(=O)N2)[C@@H](O)c1cccc(F)c1C	≥ 528	8.3	6.3	3.8	0.3	pKd [6]: 8.5; half-life [7]: 30 min; fraction unbound [8]: < 0.02; Activity (Albumin): 84%; fraction unbound [9]: < 0.02; clearance [10]: 4.14 L/h/kg; fraction unbound [11]: 0.19; Vd [12]: 2.3 L/kg; CLH [13]: 7.4 mL/min/g; EC50 [14]: 0.631 µM
CCC[C@@H](NC(=O)c1cccc2c1CC(=O)N2)[C@@H](O)c1cccc(F)c1Cl	≥ 504	8.2	6.2	3.7	< 0.4	–
CCC[C@@H](NC(=O)c1cccc2[nH]c(=O)oc12)[C@@H](O)c1cccc(Cl)c1C	326 (≈ 127 µg/mL)	8	5.4	5.1	–	–
CCC[C@@H](NC(=O)c1ccc2oc(=O)[nH]c2c1)[C@@H](O)c1ccccc1	299 (≈ 102 µg/mL)	6.3	< 4	3.2	–	–
CCC[C@@H](NC(=O)c1cccc2[nH]c(=O)ccc12)[C@@H](O)c1cccc(Cl)c1C	309 (≈ 123 µg/mL)	7.7	4.8	3.7	–	–
CCC[C@@H](NC(=O)c1cccc2c1CC(=O)N2)[C@@H](O)c1cccc(C)c1	19 (≈ 6.7 µg/mL)	8.1	5.7	3.6	–	–
CCC[C@@H](NC(=O)c1ccc2oc(=O)[nH]c2c1)[C@@H](O)c1ccccc1C	≥ 420	6.9	4.3	3.9	–	–
CCC[C@H](NC(=O)c1ccc2cc[nH]c2c1)[C@@H](O)c1ccccc1	–	4.1	–	–	–	–
CCC[C@@H](NC(=O)c1cccc2oc(=O)[nH]c12)[C@@H](O)c1cccc(Cl)c1C	233 (≈ 90.6 µg/mL)	8.2	5.1	5.2	–	–
CCC[C@@H](NC(=O)c1cccc2c1CC(=O)N2)[C@@H](O)c1ccncc1C	300 (≈ 106 µg/mL)	6.5	< 4	1.6	–	–
CCC[C@@H](NC(=O)c1ccnc2[nH]c(=O)[nH]c12)[C@@H](O)c1cccc(Cl)c1C	200 (≈ 77.8 µg/mL)	8	5.5	3.9	–	–
CCC[C@@H](NC(=O)c1cccc2c1CC(=O)N2)[C@@H](O)c1cccc(Cl)c1	52 (≈ 19.4 µg/mL)	8.4	6	3.7	–	–
CCC[C@@H](NC(=O)c1cccc2c1CC(=O)N2)[C@@H](O)c1ccccc1CC	≥ 316	8.3	6	4.1	1.6	–
CCC[C@@H](NC(=O)c1cccc2c1CC(=O)N2)[C@@H](O)c1cccc(Cl)c1C	≥ 450	8.6	6.7	4.3	0.4	–
CCC[C@@H](NC(=O)c1cccc2c1CC(=O)N2)[C@@H](O)c1ccccc1OC	≥ 299	7.8	5.1	3.4	< 0.8	–
CCC[C@@H](NC(=O)c1cccc2c1CC(=O)N2)[C@@H](O)c1cnccc1C	≥ 346	5.9	< 4	1.9	–	–
CCC[C@@H](NC(=O)c1cccc2c1CC(=O)N2)[C@@H](O)c1cc(Cl)ccc1C	≥ 408	8.6	5.3	4.3	–	–
CCC[C@@H](NC(=O)c1cccc2[nH]c(=O)[nH]c12)[C@@H](O)c1cccc(Cl)c1C	307 (≈ 119 µg/mL)	8.5	6.5	4.4	1.8	–
